From patent EP0013784B1, “C-Substituted naphthalenemonosulfonic ureides, process for their preparation and pharmaceutical compositions containing them” (AMERICAN CYANAMID COMPANY, priority 1979, dated 1980)
Where “and” joins values, the source holds several entries; their conditions need not be identical. Identical values can stand only once. Counter-ions that a name gives are not always drawn. Like-named read-outs stand apart in the source and are kept apart here.

Experiments:
[1] = target: T1, human skin fibroblast collagenase (Homo sapiens, UniProt P03956); assay: Collagenase Assay, Test Code 006 (degradation of 14C-labeled native collagen fibrils); format: biochemical; conditions: test conc.: 30 μg./ml.
T1 construct: endogenous in cells
T1 sequence (P03956 100-469): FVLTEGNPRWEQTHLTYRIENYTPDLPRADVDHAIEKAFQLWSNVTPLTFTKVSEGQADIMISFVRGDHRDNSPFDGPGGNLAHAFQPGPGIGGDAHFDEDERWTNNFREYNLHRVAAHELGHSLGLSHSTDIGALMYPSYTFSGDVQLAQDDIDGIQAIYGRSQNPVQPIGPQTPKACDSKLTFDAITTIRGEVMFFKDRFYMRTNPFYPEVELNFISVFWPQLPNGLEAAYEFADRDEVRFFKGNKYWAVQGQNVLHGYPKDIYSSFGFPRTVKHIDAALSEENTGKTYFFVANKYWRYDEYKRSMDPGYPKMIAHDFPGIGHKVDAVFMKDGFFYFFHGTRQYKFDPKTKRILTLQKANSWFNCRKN
Protocol: (§1) An active inhibitor would inhibit the degradation of the collagen fibril; (iii) Leukocyte Neutral Proteases Inhibitor Assay - This test measures the ability of neutral proteases derived from human leukocytes to degrade radiolabeled proteoglycans entrapped in polyacrylamide beads.
Collagenase assays were performed by a modification of the method of Harper, et al., Biochem.,-10, 3035 (1971). In a typical assay (total volume of 0.45 ml.), 100 pI. of the activated enzyme was added to the ^14C-labeled collagen fibrils (250 µl.) followed by 100 pl. of 50 mM cacodylate, pH 7.4, containing 5 mM calcium chloride. After incubation at 37°C. for 16 hours, the tubes were centrifuged in a Beckman microfuge for five minutes at full speed. An aliquot (200 pl.) of the supernatant, representing collagenase digestion products of the fibril, was assayed for radioactivity. […] Appropriate blanks and trypsin controls were run in parallel.
The activities are expressed as % inhibition (lowering) of collagenase activity, i.e. based on the 0% value for the enzyme control.

[2] = test system: neutral proteases derived from human leukocytes; assay: Leukocyte Neutral Proteases Inhibitor Assay (3H/35S labeled proteoglycans entrapped in polyacrylamide beads); format: biochemical; conditions: for Percent Inhibition of Neutral Protease Activity ^3H: 3H label; for Percent Inhibition of Neutral Protease Activity ^35S: 35S label
Protocol: as §1
This assay system contained (total volume of 1 ml.) 60 mM Tris-CI, pH 7.4; 2.5 mM calcium chloride; 2.5 mM magnesium chloride; 2 mg. (dry weight) of polyacrylamide beads entrapped with labeled proteoglycans, and an aliquot of the leukocyte neutral protease preparation. The reaction mixture was incubated at 37°C. for 30 minutes in a shaking water bath. The reaction was terminated by the addition of 0.2 mi. of 5% SDS in 5% HCI (v/v). After five minutes at room temperature the mixture was centrifuged and the clear supernatant (0.6 ml.) was assayed for radioactivity. To determine the effect of the test compounds on degradation of proteoglycans by neutral proteases, various concentrations of the compounds were added to the reaction mixture. Appropriate blanks were included.

[3] = test system: fibroblast collagenase and leukocyte neutral protease; assay: Enzymatic Degradation of Collagen of Human Gingiva (hydroxyproline content of residual tissue); format: biochemical; conditions: 36 hours at 37°C., enzymes alone 102.3
Protocol: The test compounds are able to inhibit the degradation of collagen of gingival tissue. Dried pieces of human gingiva were incubated at 37°C. for 36 hours with fibroblast collagenase and leukocyte neutral protease in the presence of test compound (30 and 50 µg./ml.). Antibiotics were present to prevent bacterial growth. After incubation, the residual tissue was hydrolyzed in 6N hydrochloric acid and the hydroxy-proline content (collagen) was determined. When collagenase and neutral protease were added to human gingiva, approximately 100 µg of collagen/mg. dry tissue was digested. If the test compound was present, degradation of gingival collagen was inhibited.

[4] = test system: Gingival Crevicular Fluid Collagenase; assay: Crevicular Fluid Assay (gingival crevicular fluid collagenase degrading 14C-collagen fibrils); format: biochemical, human; conditions: Diseased crevicular fluid + 30 mcg./ml. of compound; about 90 hours at 37°C.; diseased fluid alone 66 ± 9; p<0.0005
Excerpt: as §1
Since studies by Golub, et al., Dental Res., 55, 1049 (1976) have shown that the crevicular collagenase plays a major role in the degradation of collagen in periodontal tissue, the effect of test compounds on collagen degradation by this system was examined. A volunteer with diagnosed periodontal disease was used. […] After one minute, the filter paper strip was removed and the volume of the gingival crevicular fluid was measured with the aid of the Periotron (Harco Electronics, Ltd., Winnipeg, Canada). The volume of the fluid gathered from the crevice by the filter paper strip is translated by a unique transducer onto a digital readout screen. […] After reading on the meter, 1 µl. of trypsin (1.5 µg./ml.) was added to the filter paper (to activate any latent collagenase present) and after five minutes at room temperature 1 pI. of aprotonin was added. […] The tubes were centrifuged as described above and a 200 µl. aliquot of the clear supernatant was assayed for radioactivity.

collagenase = conditions: as reported in Thromb. Res. 1977, 10(4), 605-11; cited from earlier work
[5] = compound in distilled water, 16 hours at 37°C., repeat determinations
[6] = compound in distilled water, 16 hours at 37°C., repeat determinations, read-out: % Inhibition of Collagenase
[7] = DMA = Dimethylacetamide, read-out: % Inhibition of Collagenase (DMA)

O=C(Nc1cccc(C(=O)Nc2ccc(S(=O)(=O)O)c3cccc(O)c23)c1)Nc1cccc(C(=O)Nc2ccc(S(=O)(=O)O)c3cccc(O)c23)c1 [4,4'-[Ureylenebis(m-phenylenecarbonylimino)]bis-5-hydroxy-1-2-naphthalen,3sulfonic acid, disodium salt]
% Inhibition of Collagenase ([1]; compound in distilled water, 16 hours at 37°C., repeat determinations, disodium salt): 84% and 69% and 60% and 55%

O=C(Nc1cccc(C(=O)Nc2ccc3cc(S(=O)(=O)O)cc(O)c3c2)c1)Nc1cccc(C(=O)Nc2ccc3cc(S(=O)(=O)O)cc(O)c3c2)c1 [6,6'-[Ureylenebis(3,1-phenyl-enecarbonylimino)]bis[4-hydroxy] [6,6'-[Ureylenebis(m-phenylenecarbonylimino)]bis[4-hydroxy-2-naphthalenesulfonic acid]disodium salt]
% Inhibition of Collagenase [1, 5]: 92% and 69% | Percent Inhibition of Neutral Protease Activity ^3H ([2]; 0.5 mcg./ml.): 0% | Percent Inhibition of Neutral Protease Activity ^35S ([2]; 0.5 mcg./ml.): 0% | Percent Inhibition of Neutral Protease Activity ^3H ([2]; 1.0 mcg./ml.): 17% | Percent Inhibition of Neutral Protease Activity ^35S ([2]; 1.0 mcg./ml.): 31% | Percent Inhibition of Neutral Protease Activity ^3H ([2]; 2.0 mcg./ml.): 21% | Percent Inhibition of Neutral Protease Activity ^35S ([2]; 2.0 mcg./ml.): 37% | Percent Inhibition of Neutral Protease Activity ^3H ([2]; 5.0 mcg./ml.): 47% | Percent Inhibition of Neutral Protease Activity ^35S ([2]; 5.0 mcg./ml.): 74% | Percent Inhibition of Neutral Protease Activity ^3H ([2]; 10.0 mcg./ml.): 63% | Percent Inhibition of Neutral Protease Activity ^35S ([2]; 10.0 mcg./ml.): 91% | mcg. of Collagen degraded per mg. of dry gingiva ([3]; neutral proteases plus 30 mcg./ml. of compound): 60.4 mcg. per mg. of dry gingiva | mcg. of Collagen degraded per mg. of dry gingiva ([3]; neutral proteases plus 50 mcg./ml. of compound): 27.4 mcg. per mg. of dry gingiva | cpm Collagen Degraded/Unit Periotron Reading [4]: 16 ± 6 cpm

Cc1ccc(C(=O)Nc2ccc3cc(S(=O)(=O)O)cc(O)c3c2)cc1NC(=O)Nc1cc(C(=O)Nc2ccc3cc(S(=O)(=O)O)cc(O)c3c2)ccc1C [6,6'-[Ureylenebis(4-methyl-3,1-phenylene)carbonyliminolbis[4-hydroxy-2-naphthalenesulfonic acid]-disodium salt]
inhibition at 30 µg/mL [1, 6]: 73%

O=C(Nc1cccc(C(=O)Nc2ccc3cc(S(=O)(=O)O)cc(O)c3c2)c1)Nc1cccc(C(=O)Nc2ccc3cc(S(=O)(=O)O)cc(O)c3c2)c1 [6,6'-[Ureylenebis(m-phenylenecarbonylimino)]bis[4-hydroxy-2-naphthalenesulfonic acid]disodium salt]
inhibition at 30 µg/mL [1, 7]: 81%

O=C(Nc1ccc(C(=O)Nc2ccc3cc(S(=O)(=O)O)cc(O)c3c2)cc1)Nc1ccc(C(=O)Nc2ccc3cc(S(=O)(=O)O)cc(O)c3c2)cc1 [6,6'-[Ureylenebis(p-phenylenecarbonylimino)]bis[4-hydroxy-2-naphthalenesulfonic acid acid], disodium salt]
inhibition at 30 µg/mL [1, 7]: 96% | inhibition at 30 µg/mL [1, 6]: 86%

O=C(Nc1ccc(C(=O)Nc2ccc3cc(S(=O)(=O)O)cc(O)c3c2)cc1)Nc1ccc(C(=O)Nc2ccc3cc(S(=O)(=O)O)cc(O)c3c2)cc1 [6,6-'Ureylenebis(p-phenylenecarbonylimino)bis[4-hydroxy-2-naphthalenesulfonic acid]-tetrasodium salt]
% Inhibition of Collagenase [1, 5]: 92%

Cc1ccc(C(=O)Nc2ccc(S(=O)(=O)O)c3cc(S(=O)(=O)O)cc(S(=O)(=O)O)c23)cc1NC(=O)c1cccc(NC(=O)Nc2cccc(C(=O)Nc3cc(C(=O)Nc4ccc(S(=O)(=O)O)c5cc(S(=O)(=O)O)cc(S(=O)(=O)O)c45)ccc3C)c2)c1 [Suramin]
inhibition of the activity of collagenase (collagenase): not inhibiting the action of collagenase

Cc1cc(-c2ccc(/N=N/c3c(S(=O)(=O)O)cc4cc(S(=O)(=O)O)cc(N)c4c3O)c(C)c2)ccc1/N=N/c1c(S(=O)(=O)O)cc2cc(S(=O)(=O)O)cc(N)c2c1O [trypan blue]
inhibition of the activity of collagenase (collagenase): inhibiting the activity of collagenase, or a proteinase contaminant in the collagenase preparation
